Laboratory results reported in patent US20230190762A1, “STABLE VARENICLINE DOSAGE FORMS” (Handa Pharma, Inc., priority 2021, published 2023).
One block for each substance: values may come before it.

Key:
[1] = Nitrosamine test for API and finish product, UPLC-MS/MS; format: physicochemical; conditions: for API nitrosamine level (Nitro-P08) (based on varenicline base): initial level of API lot
Procedure: 4. Nitrosamine Test Method for API and Finish Product
UPLC-MS/MS, Thermo scientific; Orbitrap Exploris 120
4.2. Solution Preparations
4.2.2 Mobile phase A: Formic acid: Purified Water (0.1:100), transferred 500 mL purified water to 500 mL analysis bottle, then added 500 μL formic acid and well mixed. Ultrasonic Degassing for 5 min.
4.2.3 Mobile phase B: Formic acid: Methanol (0.1:100), transferred 500 mL methanol to 500 mL analysis bottle, then added 500 μL formic acid and well mixed. Ultrasonic degassing for 5 min.
4.2.4 Reference stock solution I: Weight about 2.0 mg of 8-nitroso-7,8,9,10-tetrahydro-6H-6,10-methanoazepino[4,5-g]quinoxaline (Nitro-P08) into a 100 mL volumetric flask. Dissolve with methanol and dilute to volume and well mixed (about 20 μg/mL of Nitro-P08).
4.2.5 Reference stock solution II: Accurately pipet 5.0 mL of reference stock solution I into a 200-mL volumetric flask, dilute with methanol to volume and well mixed (about 500 ng/mL of Nitro-P08).
4.2.6 Reference stock solution III: Accurately pipet 5.0 mL of reference stock solution II into a 50-mL volumetric flask, dilute with methanol to volume and well mixed (about 50 ng/mL of Nitro-P08).
4.2.7 Reference solution: Accurately pipet 1.0 mL of reference stock solution III into a 50-mL volumetric flask, dilute with methanol to volume and well mixed.
Weighted about 25 mg of sample into a 50 mL volumetric flask. Diluted to volume with Diluent and well mixed. Prepared 2 duplication in parallel.
4.2.8.2 for Finish Product
Grind 10 tablets for 1 mg strength or 20 tablets for 0.5 mg strength, accurately weigh and transfer about 0.61 g of powder (equivalent to about 5 mg of Varenicline Tartrate API) into a 50 mL stoppered test tube, add 10 mL of methanol, vortex for 1 min and treat with ultrasound for 20 min. Place it still for 10 min, take an appropriate amount of solution for centrifugation (10000 rpm, 10 min), and then take the supernatant as the test solution. Prepare in duplicates. (Note: Grind the tablets and weigh right before the test sample solution preparation.)

[2] = Particle size, Mastersizer 3000 laser particle size analyzer, wet method; format: physicochemical
Procedure: The particle size of five representative lots of varenicline tartrate was determined and the results are as follows:
Mastersizer 3000 Laser Particle Size Analyzer and Electronic Analytical Balance
3.3.1 Preparation N-hexane solution of 0.1% span 85.
3.3.2 Weigh about 0.04 g sample and add into 5 mL dispersant, and ultrasonic for 10 min.
3.4.1 Cleaning instrument.
3.4.2 The above parameters are set,
3.4.3 Reconfirm the inspection parameters.
3.4.4 Background checks are required.
3.4.5 Samples tested and each for 3 times.

[3] = particle size of varenicline tartrate lot
[4] = particle size of varenicline tartrate lot, listed as 202010004
[5] = API lot of compatibility study, 80 mesh
[6] = particle size of varenicline tartrate lot, listed as 202012001
[7] = particle size of varenicline tartrate lot, listed as 202012002

Substance: Varenicline Tartrate [Lot 201811001]
Nitroso impurity [drawing 4] in bulk drug substance (API) ([1]; <30° C., >[…]): 18.3 ppm
Nitroso impurity [drawing 5] in bulk drug substance (API) ([1]; <30° C., >[…]): <LOQ (0.0289 ppm)
D10 [2, 3]: 0.878 μm
D50 [2, 3]: 2.630 μm
D90 [2, 3]: 32.700 μm

Substance: Varenicline Tartrate [Lot 201810001]
Nitroso impurity [drawing 4] in bulk drug substance (API) ([1]; <30° C., >[…]): 7.1 ppm
Nitroso impurity [drawing 5] in bulk drug substance (API) ([1]; <30° C., >[…]): <LOQ (0.0289 ppm)
D10 [2, 3]: 0.858 μm
D50 [2, 3]: 2.600 μm
D90 [2, 3]: 9.660 μm

Substance: Varenicline Tartrate [Lot 201702001]
D10 [2, 5]: 1.1 µm
D50 [2, 5]: 3.3 µm
D90 [2, 5]: 11 µm

Substance: Varenicline Tartrate [Lot 6A]
API nitrosamine level (Nitro-P08) (based on varenicline base) [1]: 7.35 ppm

The next lines start with the values.

D10 [2, 4]: 2.339 μm
D50 [2, 4]: 6.354 μm
D90 [2, 4]: 11.802 μm
Substance: Varenicline Tartrate [Lot 202010004]

D10 [2, 6]: 1.547 μm
D50 [2, 6]: 4.088 μm
D90 [2, 6]: 8.554 μm
Substance: Varenicline Tartrate [Lot 202012001]

Nitroso impurity [drawing 4] in bulk drug substance (API) ([1]; initial): 1.6 ppm
Nitroso impurity [drawing 5] in bulk drug substance (API) ([1]; initial): <LOQ (0.0289 ppm)
Substance: Varenicline Tartrate [Lot 202101002]

API nitrosamine level (Nitro-P08) (based on varenicline base) ([1]; listed as 6B): 1.8 ppm
D10 [2, 7]: 2.269 μm
D50 [2, 7]: 5.708 μm
D90 [2, 7]: 11.288 μm
Substance: Varenicline Tartrate [Lot 202012002]
